# pEC50: −log10 of the molar value.
# Target: T1, F508delCFTR cell surface expression in CFBE41o-F508delCFTR-HRP cells (Homo sapiens, UniProt P13569, DEL508-508)
# T1 construct: fused on or other part: Horseradish peroxidase (HRP) reporter inserted in the fourth exofacial (extracellular) loop of CFTR; expression is doxycycline-inducible
# Experiment: Cell Surface Expression-Horse Radish Peroxidase (CSE-HRP) Assay
# Type: cell-based
# Details: for pEC50: CFBE41o-F508delCFTR-HRP cells, 18-24 hours at 33° C., 8-point curve, highest concentration 20 μM; for Maximum % activity (%): maximum at any tested concentration, normalized to on-plate positive control (3 μM)
# Source text: Cell Surface Expression-Horse Radish Peroxidase (CSE-HRP) Assay:
# A cellular assay for measuring the F508delCFTR cell surface expression after correction with test compounds was developed in human lung derived epithelial cell line (CFBE41o-) (Veit G et al, (2012) Mol Biol Cell. 23(21): 4188-4202). This was achieved by expressing the F508delCFTR mutation along with a horseradish peroxidase (HRP) in the fourth exofacial loop and then measuring the HRP activity using luminescence readout from these cells, CFBE41o-F508delCFTR-HRP, that were incubated overnight with the test corrector compounds. Briefly, for this primary assay, the CFBE41o-F508delCFTR-HRP cells were plated in 384-well plates (Greiner Bio-one; Cat 781080) at 4,000 cells/well along with 0.5 μg/mL doxycycline to induce the F508delCFTR-HRP expression and further incubated at 37° C., 5% CO2 for 72 hours. The test compounds were then added at the required concentrations and further incubated for 18-24 hours at 33° C. The highest concentration tested was 20 μM with an 8-point concentration response curve using a 3-fold dilution. Three replicate plates were run to determine one EC50. All plates contained negative controls (dimethyl sulfoxide, DMSO) and positive controls (3 μM of 3-[(2R,4R)-4-({[1-(2,2-difluoro-1,3-benzodioxol-5-yl)cyclopropyl]carbonyl}amino)-7-methoxy-3,4-dihydro-2H-chromen-2-yl]benzoic acid) as well as on-plate concentration response of the positive control. Post incubation, the plates were washed 5× times with Dulbecco's phosphate buffered saline (DPBS), followed by the addition of the HRP substrate, luminol (50 μL), and measuring the HRP activity using luminescence readout on EnVision® Multilabel Plate Reader (Perkin Elmer; product number 2104-0010). The raw counts from the experiment are analyzed using Accelrys® Assay Explorer v3.3.
# Z′ greater than 0.5 was used as passing quality control criteria for the plates.
# The Z′ is defined as: 1−[3*SDPositive Control+3*SDNegative Control/Absolute(MeanPositive Control−MeanNegative Control)] wherein “SD” is standard deviation.
# The % activity measured at each of the 8 test concentrations of the test compound was normalized to the on-plate positive control using the following formula: % activity=[(test compound response DMSO response)/(positive control response DMSO response)]*100
# The maximum % activity achieved for the test compound at any tested concentration is presented in Table 1 along with the EC50 calculated using the following general sigmoidal curve with variable Hill slope equation (described as Model 42 in the Accelrys® Assay Explorer v3.3 software): y=(a−d)/(1+(x/c)^b)+d
# General sigmoidal curve with concentration, response, top, bottom, EC50 and Hill slope.
# This model describes a sigmoidal curve with an adjustable baseline, a. The equation can be used to fit curves where response is either increasing or decreasing with respect to the independent variable, “x”.
# “x” is a concentration of drug under test.
# “a” is the maximum response, and “d” is the minimum response
# “c” is the inflection point (EC50) for the curve. That is, “y” is halfway between the lower and upper asymptotes when x=c.
# “b” is the slope-factor or Hill coefficient. The sign of b is positive when the response increases with increasing dose and is negative when the response decreases with increasing dose (inhibition).
# T1 sequence (P13569 with tags, fused parts or gaps DEL508-508 limits assumed): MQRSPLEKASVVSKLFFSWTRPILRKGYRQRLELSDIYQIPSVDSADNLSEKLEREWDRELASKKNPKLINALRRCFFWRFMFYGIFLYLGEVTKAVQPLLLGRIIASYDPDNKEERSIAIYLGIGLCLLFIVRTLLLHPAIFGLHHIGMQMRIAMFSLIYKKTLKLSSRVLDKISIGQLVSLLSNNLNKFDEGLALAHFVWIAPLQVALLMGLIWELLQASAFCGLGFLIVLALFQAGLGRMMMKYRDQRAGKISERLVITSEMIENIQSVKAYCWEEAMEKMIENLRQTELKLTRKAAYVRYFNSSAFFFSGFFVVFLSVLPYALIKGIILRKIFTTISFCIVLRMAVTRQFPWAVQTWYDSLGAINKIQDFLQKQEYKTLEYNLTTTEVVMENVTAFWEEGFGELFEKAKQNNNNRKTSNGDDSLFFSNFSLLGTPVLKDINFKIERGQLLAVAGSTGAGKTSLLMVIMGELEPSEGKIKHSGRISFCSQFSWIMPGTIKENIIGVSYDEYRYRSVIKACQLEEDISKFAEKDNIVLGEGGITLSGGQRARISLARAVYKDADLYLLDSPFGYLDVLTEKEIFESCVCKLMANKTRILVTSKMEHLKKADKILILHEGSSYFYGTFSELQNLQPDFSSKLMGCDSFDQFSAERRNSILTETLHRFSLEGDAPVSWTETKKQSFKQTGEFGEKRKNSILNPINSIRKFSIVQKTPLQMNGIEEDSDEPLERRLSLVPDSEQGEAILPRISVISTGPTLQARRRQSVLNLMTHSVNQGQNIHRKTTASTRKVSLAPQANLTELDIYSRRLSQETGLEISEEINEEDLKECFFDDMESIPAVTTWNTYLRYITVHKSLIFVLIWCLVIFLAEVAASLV
# T1 sequence (P13569 919-1480 limits assumed, stated change not applied): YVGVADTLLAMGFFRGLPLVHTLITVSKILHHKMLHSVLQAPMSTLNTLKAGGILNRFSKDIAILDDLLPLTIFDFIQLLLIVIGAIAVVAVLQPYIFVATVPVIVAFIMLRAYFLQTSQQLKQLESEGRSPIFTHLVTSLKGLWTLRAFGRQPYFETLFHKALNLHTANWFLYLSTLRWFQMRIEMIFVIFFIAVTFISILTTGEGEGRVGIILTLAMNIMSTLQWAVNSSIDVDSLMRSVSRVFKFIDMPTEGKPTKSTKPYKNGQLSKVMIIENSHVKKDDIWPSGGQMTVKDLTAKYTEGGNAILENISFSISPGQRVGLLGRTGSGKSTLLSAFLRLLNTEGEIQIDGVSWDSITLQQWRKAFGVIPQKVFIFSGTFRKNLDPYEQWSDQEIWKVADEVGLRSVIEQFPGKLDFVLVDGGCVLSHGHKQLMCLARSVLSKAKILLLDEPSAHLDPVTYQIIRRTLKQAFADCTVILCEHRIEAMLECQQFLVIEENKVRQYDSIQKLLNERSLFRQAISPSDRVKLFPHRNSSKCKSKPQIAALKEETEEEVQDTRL
pEC50,Maximum % activity (%),Compound
5.34,22%,"Cc1ccc(NC(=O)[C@@]2(C)CCc3c2ccc2c3OCO2)cc1-c1cccc(C(=O)O)c1 (single isomer, unassigned) [Example 38]"
6.04,111%,"C[C@]1(C(=O)N[C@H]2C[C@@H](c3ccc(C(=O)O)cc3)O[C@@H](c3ccccc3)C2)COc2cc3c(cc21)OC(F)(F)O3 (single isomer, unassigned) [Example 45]"
6.68,116%,"COc1ccc2c(c1)O[C@@H](c1ccc(C(=O)O)cc1)C[C@H]2NC(=O)[C@]1(C)CCc2cc3c(cc21)OC(F)(F)O3 (single isomer, unassigned) [Example 49]"
5.78,75%,"COc1ccc2c(c1)O[C@@H](c1ccc(C(=O)O)cc1)C[C@H]2NC(=O)[C@@]1(C)CCc2cc3c(cc21)OC(F)(F)O3 (single isomer, unassigned) [Example 50]"
6.06,107%,"COc1ccc2c(c1)O[C@@H](c1cccc(C(=O)O)c1)C[C@H]2NC(=O)[C@]1(C)CCc2cc3c(cc21)OC(F)(F)O3 (single isomer, unassigned) [Example 56]"
5.75,99%,"COc1ccc2c(c1)O[C@@H](c1cccc(C(=O)O)c1)C[C@H]2NC(=O)[C@@]1(C)CCc2cc3c(cc21)OC(F)(F)O3 (single isomer, unassigned) [Example 57]"
6.38,104%,"C[C@@]1(C(=O)N[C@@H]2C[C@H](c3ccc(C(=O)O)cc3)Oc3ccccc32)CCc2cc3c(cc21)OC(F)(F)O3 (single isomer, unassigned) [Example 58]"
5.89,49%,"CC(C)(CO)[C@H]1Cc2cc(NC(=O)[C@@]3(C)COc4cc5c(cc43)OC(F)(F)O5)c(F)cc2N1C[C@@H](O)CO (single isomer, unassigned) [Example 140]"
6.02,39%,"CC(C)(CO)[C@@H]1Cc2cc(NC(=O)[C@@]3(C)COc4cc5c(cc43)OC(F)(F)O5)c(F)cc2N1C[C@@H](O)CO (single isomer, unassigned) [Example 141]"
7.15,123%,"COc1ccc2c(c1)O[C@@H](c1cnc([C@@H](O)CO)cn1)C[C@H]2NC(=O)[C@@]1(C)COc2cc3c(cc21)OC(F)(F)O3 (single isomer, unassigned) [Example 191]"
6.59,108%,"COc1ccc2c(c1)O[C@H](c1ccc(OCc3ccccc3)nn1)C[C@H]2NC(=O)[C@@]1(C)COc2cc3c(cc21)OC(F)(F)O3 (single isomer, unassigned) [Example 272]"
6.92,92%,"COc1ccc2c(c1)O[C@@H](c1ccc(OCc3ccccc3)nn1)C[C@H]2NC(=O)[C@@]1(C)COc2cc3c(cc21)OC(F)(F)O3 (single isomer, unassigned) [Example 273]"
5.69,100%,"Cc1ccc(NC(=O)C2(C)COc3cc4c(cc32)OC(F)(F)O4)nc1-c1cccc(C(=O)OC(C)(C)C)c1 (centres unmarked) [Example 1, tert-butyl 3-{6-[(2,2-difluoro-7-methyl-6,7-dihydro-2H-furo[2,3-f][1,3]benzodioxole-7-carbonyl)amino]-3-methylpyridin-2-yl}benzoate]"
< 4.70,3%,"Cc1ccc(NC(=O)[C@]2(C)COc3cc4c(cc32)OC(F)(F)O4)nc1-c1cccc(C(=O)OC(C)(C)C)c1 [Example 3, tert-butyl 3-(6-{[(7S)-2,2-difluoro-7-methyl-6,7-dihydro-2H-furo[2,3-f][1,3]benzodioxole-7-carbonyl]amino}-3-methylpyridin-2-yl)benzoate]"
< 4.70,12%,"Cc1ccc(NC(=O)[C@]2(C)COc3cc4c(cc32)OC(F)(F)O4)nc1-c1cccc(C(=O)O)c1 [Example 4, 3-(6-{[(7S)-2,2-difluoro-7-methyl-6,7-dihydro-2H-furo[2,3-f][1,3]benzodioxole-7-carbonyl]amino}-3-methylpyridin-2-yl)benzoic acid]"
5.49,137%,"Cc1ccc(NC(=O)[C@@]2(C)COc3cc4c(cc32)OC(F)(F)O4)nc1-c1cccc(C(=O)OC(C)(C)C)c1 [Example 5, tert-butyl 3-(6-{[(7R)-2,2-difluoro-7-methyl-6,7-dihydro-2H-furo[2,3-f][1,3]benzodioxole-7-carbonyl]amino}-3-methylpyridin-2-yl)benzoate]"
5.42,124%,"COC(=O)[C@@H]1CCN(c2cccc(NC(=O)C3(C)COc4cc5c(cc43)OC(F)(F)O5)n2)C1 (stereo partly drawn) [Example 7, methyl (3R)-1-{6-[(2,2-difluoro-7-methyl-6,7-dihydro-2H-furo[2,3-f][1,3]benzodioxole-7-carbonyl)amino]pyridin-2-yl}pyrrolidine-3-carboxylate]"
5.83,126%,"CC1(C(=O)Nc2cccc(N3CC[C@@H](C(=O)O)C3)n2)COc2cc3c(cc21)OC(F)(F)O3 (stereo partly drawn) [Example 8, (3R)-1-{6-[(2,2-difluoro-7-methyl-6,7-dihydro-2H-furo[2,3-f][1,3]benzodioxole-7-carbonyl)amino]pyridin-2-yl}pyrrolidine-3-carboxylic acid]"
5.99,135%,"C[C@]1(C(=O)Nc2cccc(N3CC[C@@H](C(=O)O)C3)n2)COc2cc3c(cc21)OC(F)(F)O3 [Example 9, (3R)-1-(6-{[(7R)-2,2-difluoro-7-methyl-6,7-dihydro-2H-furo[2,3-f][1,3]benzodioxole-7-carbonyl]amino}pyridin-2-yl)pyrrolidine-3-carboxylic acid]"
6.39,121%,"COC(=O)c1cccc([C@H]2C[C@@H](NC(=O)C3(C)COc4cc5c(cc43)OC(F)(F)O5)c3ccc(OC)cc3O2)c1 (stereo partly drawn) [Example 10, methyl 3-{(2R,4R)-4-[(2,2-difluoro-7-methyl-6,7-dihydro-2H-furo[2,3-f][1,3]benzodioxole-7-carbonyl)amino]-7-methoxy-3,4-dihydro-2H-1-benzopyran-2-yl}benzoate]"
< 4.70,14%,COC(=O)c1cccc([C@H]2C[C@@H](NC(=O)[C@]3(C)COc4cc5c(cc43)OC(F)(F)O5)c3ccc(OC)cc3O2)c1 [Example 12]

Compound,pEC50,Maximum % activity (%)
"1-(6-{[(7R)-2,2-difluoro-7-methyl-6,7-dihydro-2H-furo[2,3-f][1,3]benzodioxole-7-carbonyl]amino}pyridin-2-yl)-4,4-dimethylpyrrolidine-3-carboxylic acid [Example 115]",6.00,147%
"4-[(2R,4S,6R)-4-{[(7R)-2,2-difluoro-7-methyl-6,7-dihydro-2H-furo[2,3-f][1,3]benzodioxole-7-carbonyl]amino}-6-methyloxan-2-yl]benzoic acid and 4-[(2S,4R,6S)-4-{[(7R)-2,2-difluoro-7-methyl-6,7-dihydro-2H-furo[2,3-f][1,3]benzodioxole-7-carbonyl]amino}-6-methyloxan-2-yl]benzoic acid [Example 43]",5.60,93%
"4-[(2R,4S,6S)-4-{[(7R)-2,2-difluoro-7-methyl-6,7-dihydro-2H-furo[2,3-f][1,3]benzodioxole-7-carbonyl]amino}-6-phenyloxan-2-yl]benzoic acid and 4-[(2S,4R,6R)-4-{[(7R)-2,2-difluoro-7-methyl-6,7-dihydro-2H-furo[2,3-f][1,3]benzodioxole-7-carbonyl]amino}-6-phenyloxan-2-yl]benzoic acid [Example 34]",6.32,109%
"O=C(O)c1ccc([C@@H]2C[C@H](NC(=O)C3(c4ccc5c(c4)OC(F)(F)O5)CC3)c3ccccc3N2)cc1 (single isomer, unassigned) [Example 48]",5.56,27%

# Source: patent US9840513B2 (AbbVie S.à.r.l., priority 2015, dated 2017)
